The source of these data is US8426447B2, “Spiro-tricyclic ring compounds as beta-secretase modulators and methods of use” (Amgen Inc., priority 2008, dated 2013).

For assay [1], the target named is T1, BACE1 (Homo sapiens, UniProt P56817). The assay can be described thus: In Vitro Enzymatic BACE FRET (Fluorescence Resonance Energy Transfer) Assay. It is filed as biochemical. Conditions: read-out: BACE1 FRET assay. The method in brief:
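Cleavage of a 50 nM internally quenched peptide substrate is followed by fluorescence after a one-hour reaction in acidic acetate buffer, pH 4.2, terminated by Tris.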

Assay [2] concerns the target T1, BACE1. The assay can be described thus: In Vitro BACE Cell-based Assay (HEK cell assay): Aβ40 in conditioned medium of cells stably expressing Amyloid Precursor Protein, sandwich ELISA. Conditions: read-out: HEK cell assay. The method in brief: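 HEK cells stably expressing APP were treated 24 h with compound in 10-point dose response starting at 100 or 10 μM (0.1% DMSO). Secreted Aβ40 quantified by sandwich ELISA (pAb40 capture, biotinylated 6E10 detection, europium time-resolved fluorescence), with IC50 derived from percent inhibition versus concentration.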
A general note: In an ELISA, binding on a coated surface is turned into a signal by an enzyme label.

For assay [3], the system named is amyloid beta peptide (A-beta) in cerebrospinal fluid and brain. The assay can be described thus: In Vivo Inhibition of Beta-Secretase: reduction of A-beta levels in CSF and brain. Conditions: after 4 hrs, mouse or rat.
From the text: Several animal models, including mouse, rat, dog, and monkey, may be used to screen for inhibition of beta-secretase activity in vivo following administration of a test compound sample. Animals used in this invention can be wild type, transgenic, or gene knockout animals. […] A separate group of animals receive 2% hydroxypropyl methylcellulose, 1% Tween80 alone, containing no test compound, and serve as a vehicle-control group. At the end of the test period, animals are sacrificed and brain tissues, plasma or cerebrospinal fluid are collected. […] Homogenates are centrifuged at 355,000 g, 4° C. for 30 minutes. CSF or brain supernatants are then analyzed for the presence of A-beta peptide by specific sandwich ELISA assays based on ECL (Electrochemiluminescence) technology. For example, rat Abeta40 is measured using biotinylated-4G8 (Signet) as a capture antibody and Fab40 (an in-house antibody specific to the C-terminal of Abeta40) as a detection antibody.
Where [4] appears, read: Table II, Aβ40, 24 h incubation.
The mark [5] stands for this setting: in vitro BACE FRET enzyme assay, IC50 class symbols.
The mark [6] stands for this setting: HEK cell-based assay, Aβ40 in conditioned medium, IC50 class symbols.

Bounds are passed on as bounds.

T1 sequence (P56817 46-501, species assumed): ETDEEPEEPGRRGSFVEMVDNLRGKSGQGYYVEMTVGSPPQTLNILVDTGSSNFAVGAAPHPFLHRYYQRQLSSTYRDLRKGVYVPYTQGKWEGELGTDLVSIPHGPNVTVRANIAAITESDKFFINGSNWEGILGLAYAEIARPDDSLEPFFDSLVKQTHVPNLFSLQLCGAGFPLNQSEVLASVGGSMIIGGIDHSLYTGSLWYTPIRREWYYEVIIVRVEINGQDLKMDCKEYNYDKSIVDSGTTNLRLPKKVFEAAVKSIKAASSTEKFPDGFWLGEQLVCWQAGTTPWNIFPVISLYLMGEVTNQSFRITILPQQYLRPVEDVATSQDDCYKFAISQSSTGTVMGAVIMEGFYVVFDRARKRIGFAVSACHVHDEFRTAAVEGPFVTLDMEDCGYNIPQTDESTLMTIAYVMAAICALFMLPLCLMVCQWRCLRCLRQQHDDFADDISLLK

With `CC1(C)CN(c2cc3c(cn2)Oc2ccc(-c4cccnc4)cc2[C@@]32COC(N)=N2)CCO1` [Example 490, (5S)-3-(2,2-dimethyl-4-morpholinyl)-7-(3-pyridinyl)spiro[chromeno[2,3-c]pyridine-5,4′-[1,3]oxazol]-2′-amine], the IC50 on BACE1 [1] and on BACE1 [2] (HEK cells) was less than 0.1 µM throughout. Moreover, in assay [3] (10 mpk), the “percent reduction in CSF A-beta levels” value stood at 28%. Also, the “percent reduction in brain A-beta levels” value in assay [3] (10 mpk) is recorded as 9%.

Consider `NC1=N[C@]2(CO1)c1cc(OCC3CC3)ccc1Oc1ccc(-c3cncnc3)cc12` [Example 61, (4S)-2′-(cyclopropylmethoxy)-7′-(5-pyrimidinyl)spiro[1,3-oxazole-4,9′-xanthen]-2-amine], for which the IC50 on BACE1 [1] (Table II) is less than 0.1 µM. Moreover, at BACE1 [2] (setting [4]), the IC50 is less than 0.1 µM. Moreover, in assay [3] (10 mpk), the “percent reduction in CSF A-beta levels” value is recorded as 50% and the “percent reduction in brain A-beta levels” value was 18%.

In the case of `NC1=NC2(CO1)c1cc(-c3cncnc3)ccc1Oc1c(F)cc(C3=CCOCC3)cc12` (stereo in doubt) [Example 295, (R)-2′-(3,6-dihydro-2H-pyran-4-yl)-4′-fluoro-7′-(pyrimidin-5-yl)-5H-spiro[oxazole-4,9′-xanthen]-2-amine], the IC50 on BACE1 [1] (Table IV, class symbols) is less than 0.1 µM; at BACE1 [2] (Table IV, class symbols), less than 0.1 µM. Further, the “percent reduction in CSF A-beta levels” value in assay [3] (30 mpk) was 78%. In assay [3] (30 mpk), the “percent reduction in brain A-beta levels” value is 66%.

`NC1=N[C@@]2(CO1)c1cc(-c3cccnc3F)ccc1Oc1ccc(N3CCOCC3)cc12` [Example 289, (S)-2′-(2-fluoropyridin-3-yl)-7′-morpholino-5H-spiro[oxazole-4,9′-xanthen]-2-amine 2,2,2-trifluoroacetate]: the IC50 was less than 0.1 µM at BACE1 [1] (Table IV, class symbols) and less than 0.1 µM at BACE1 [2] (Table IV, class symbols). The results for the “percent reduction in CSF A-beta levels” value in assay [3] (10 mpk) and in assay [3] (30 mpk) were 49% and 69%, respectively. In addition, the “percent reduction in brain A-beta levels” value is given as 23% in assay [3] (10 mpk) and 52% in assay [3] (30 mpk).

In the case of `Cn1cc(-c2cc3c(cc2F)Oc2ccc(-c4cccnc4)cc2[C@@]32COC(N)=N2)cn1` [Example 531, (4S)-3′-fluoro-2′-(1-methyl-1H-pyrazol-4-yl)-7′-(3-pyridinyl)spiro[1,3-oxazole-4,9′-xanthen]-2-amine], at BACE1 [1], the IC50 is less than 0.1 µM. Moreover, the IC50 at BACE1 [2] (HEK cells) is less than 0.1 µM. In assay [3] (10 mpk), the “percent reduction in CSF A-beta levels” value is 45% and the “percent reduction in brain A-beta levels” value was found to be 25%.

Regarding `NC1=NC2(CO1)c1cc(-c3cccnc3)ccc1Oc1c(F)cc(C3=CCOCC3)cc12` (stereo in doubt) [Example 297, (R)-2′-(3,6-dihydro-2H-pyran-4-yl)-4′-fluoro-7′-(pyridin-3-yl)-5H-spiro[oxazole-4,9′-xanthen]-2-amine], the IC50 at BACE1 [1] (Table IV, class symbols) is less than 0.1 µM; on BACE1 [2] (Table IV, class symbols), less than 0.1 µM. Also, in assay [3] (30 mpk), the “percent reduction in CSF A-beta levels” value amounted to 69%. Besides, the “percent reduction in brain A-beta levels” value in assay [3] (30 mpk) is given as 54%.

`CC(C)(C#N)COc1ccc2c(c1)[C@@]1(COC(N)=N1)c1cc(-c3ccccc3)cnc1O2` [Example 817, 3-(((5S)-2′-amino-3-phenylspiro[chromeno[2,3-b]pyridine-5,4′-[1,3]oxazol]-7-yl)oxy)-2,2-dimethylpropanenitrile]: on BACE1 [1] (Table IV, class symbols), the IC50 was less than 0.1 µM. At BACE1 [2] (Table IV, class symbols), the IC50 was less than 0.1 µM. Further, in assay [3] (30 mpk), the “percent reduction in CSF A-beta levels” value turned out to be 44% and the “percent reduction in brain A-beta levels” value turned out to be 25%.

Take `CC(C)(C)C#Cc1cnc2c(c1)[C@]1(COC(N)=N1)c1cc(-c3cccnc3)ccc1O2` [Example 185b, (5S)-3-(3,3-dimethyl-1-butyn-1-yl)-7-(3-pyridinyl)spiro[chromeno[2,3-b]pyridine-5,4′-[1,3]oxazol]-2′-amine]: the IC50 on BACE1 [1] (Table III, IC50's in uM ranges) was less than 0.1 µM. Also, at BACE1 [2] (Table III, IC50's in uM ranges), the IC50 was less than 0.1 µM. Further, in assay [3] (30 mpk), the “percent reduction in CSF A-beta levels” value is on record as 72% and the “percent reduction in brain A-beta levels” value is recorded as 58%.

For `CC(C)(C)COc1ccc2c(c1)[C@]1(COC(N)=N1)c1cc(-c3cccnc3)cnc1O2` [Example 92, (5R)-7-(2,2-dimethylpropoxy)-3-(3-pyridinyl)spiro[chromeno[2,3-b]pyridine-5,4′-[1,3]oxazol]-2′-amine], the IC50 at BACE1 [1] (Table II) was less than 0.1 µM. Besides, the IC50 on BACE1 [2] (setting [4]) was less than 0.1 µM. In assay [3] (30 mpk), the “percent reduction in CSF A-beta levels” value is 62% and the “percent reduction in brain A-beta levels” value is 49%.

In the case of `COC(C)(C)C#Cc1cc(F)c2c(c1)[C@]1(COC(N)=N1)c1cc(-c3cncnc3)ccc1O2` [Example 673, (4S)-4′-fluoro-2′-(3-methoxy-3-methyl-1-butyn-1-yl)-7′-(5-pyrimidinyl)spiro[1,3-oxazole-4,9′-xanthen]-2-amine], the IC50 at BACE1 [1] was less than 0.1 µM. On BACE1 [2], the IC50 is less than 0.1 µM. Further, in assay [3] (30 mpk), the “percent reduction in CSF A-beta levels” value came out at 81% and the “percent reduction in brain A-beta levels” value was determined as 63%.

As to `NC1=N[C@@]2(CO1)c1cc(-c3ccccc3)ccc1Oc1cnc(C3=CCOCC3)cc12` [Example 545, (5S)-3-(3,6-dihydro-2H-pyran-4-yl)-7-phenylspiro[chromeno[2,3-c]pyridine-5,4′-[1,3]oxazol]-2′-amine], the IC50 at BACE1 [1] (Table IV, class symbols) is less than 0.1 µM; at BACE1 [2] (Table IV, class symbols) it was less than 0.1 µM. For the same molecule, the “percent reduction in CSF A-beta levels” value in assay [3] (30 mpk) worked out at 73%. Besides, the “percent reduction in brain A-beta levels” value in assay [3] (30 mpk) is given as 58%.

Turning to `CC(C)(F)COc1cc(F)c2c(c1)[C@]1(COC(N)=N1)c1cc(-c3cncnc3)ccc1O2` [Example 293, (S)-4′-fluoro-2′-(2-fluoro-2-methylpropoxy)-7′-(pyrimidin-5-yl)-5H-spiro[oxazole-4,9′-xanthen]-2-amine], the IC50 on BACE1 [1] is less than 0.1 µM. Further, the IC50 at BACE1 [2] (HEK cells) is less than 0.1 µM. Also, in assay [3] (10 mpk), the “percent reduction in CSF A-beta levels” value came out at 73% and the “percent reduction in brain A-beta levels” value came to 63%.

Consider `NC1=N[C@]2(CO1)c1cc(C#CC3(O)CCC3)ccc1Oc1ccc(-c3cncnc3)cc12` [Example 956, 1-(((4R)-2-amino-7′-(5-pyrimidinyl)spiro[1,3-oxazole-4,9′-xanthen]-2′-yl)ethynyl)cyclobutanol], for which, at BACE1 [1], the IC50 was less than 0.1 µM. Moreover, at BACE1 [2], the IC50 is less than 0.1 µM. In assay [3] (30 mpk), the “percent reduction in CSF A-beta levels” value was found to be 25% and the “percent reduction in brain A-beta levels” value is on record as 8%.

Take `NC1=N[C@@]2(CO1)c1cc(-c3cccnc3)ccc1Oc1ccc(N3CC(F)(F)C3)cc12` [Example 540, (4S)-2′-(3,3-difluoro-1-azetidinyl)-7′-(3-pyridinyl)spiro[1,3-oxazole-4,9′-xanthen]-2-amine]: on BACE1 [1] (Table IV, class symbols), the IC50 was less than 0.1 µM. For the same molecule, on BACE1 [2] (Table IV, class symbols), the IC50 was less than 0.1 µM. In addition, in assay [3] (10 mpk), the “percent reduction in CSF A-beta levels” value came out at 40% and the “percent reduction in brain A-beta levels” value came out at 7%.

Regarding `CC(C)(C)COc1cnc2c(c1)[C@]1(COC(N)=N1)c1cc(-c3cccnc3)ccc1O2` [Example 744, (5S)-3-(2,2-dimethylpropoxy)-7-(3-pyridinyl)spiro[chromeno[2,3-b]pyridine-5,4′-[1,3]oxazol]-2′-amine], in assay [3] (10 mpk), the “percent reduction in CSF A-beta levels” value is listed as 37% and the “percent reduction in brain A-beta levels” value came out at 26%.

Turning to `COc1cncc(-c2ccc3c(c2)[C@@]2(COC(N)=N2)c2cc(OCC(C)(C)C)cnc2O3)c1` [compound 383], the IC50 at BACE1 [1] (setting [5]) and at BACE1 [2] (setting [6]) was less than 0.1 µM in each case.

Consider `Cn1cc(-c2cccc(-c3ccc4c(c3)[C@@]3(COC(N)=N3)c3cc(-c5cnn(C)c5)ncc3O4)c2)cn1` [compound 328], for which the values for the IC50 at BACE1 [1] (setting [5]) and at BACE1 [2] (setting [6]) were less than 0.1 µM and 0.1 to 1 µM, respectively.

With `COc1cc2c(cc1F)Oc1ccc(-c3cncnc3)cc1[C@@]21COC(N)=N1` [154b], the IC50 at BACE1 [1] (Table III, IC50's in uM ranges) is less than 0.1 µM; at BACE1 [2] (Table III, IC50's in uM ranges), 0.1 to 1 µM.

In the case of `NC1=N[C@]2(CO1)c1cc(OC3COC3)ccc1Oc1ccc(-c3cccnc3)cc12` [compound 777], the IC50 on BACE1 [1] and on BACE1 [2] was 0.1 to 1 µM each time.

In the case of `NC1=N[C@]2(CO1)c1cc(OCC(C(F)(F)F)C(F)(F)F)ccc1Oc1ccc(-c3cncnc3)cc12` [compound 163], the IC50 on BACE1 [1] (Table III, IC50's in uM ranges) was in the range of 0.1 to 1 µM; at BACE1 [2] (Table III, IC50's in uM ranges), 0.1 to 1 µM.

For the molecule `NC1=N[C@]2(CO1)c1cc(CCC3(O)CCC3)ccc1Oc1ccc(-c3cncnc3)cc12` [compound 797], the IC50 on BACE1 [1] (Table IV, class symbols) is less than 0.1 µM; on BACE1 [2] (Table IV, class symbols), less than 0.1 µM.

`COc1ccc2c(c1)C1(COC(N)=N1)c1cc(-c3ccc(OC(F)(F)F)cc3)ccc1O2` (stereo not shown) [Example 27, 2′-methoxy-7′-(4-(trifluoromethoxy)phenyl)spiro[1,3-oxazole-4,9′-xanthen]-2-amine]: the IC50 was greater than 5 µM on BACE1 [1] (Table 1) and 1 to 5 µM on BACE1 [2] (Table 1, Aβ40, 24 h incubation).

As to `CC(C)(C)COc1ccc2c(c1)[C@]1(COC(N)=N1)c1cc(-c3cccc4ncccc34)ccc1O2` [compound 916], the IC50 is 0.1 to 1 µM on BACE1 [1] (Table IV, class symbols) and 1 to 5 µM at BACE1 [2] (Table IV, class symbols).

Regarding `CC(=O)c1cccc(-c2ccc3c(c2)[C@]2(COC(N)=N2)c2cc(OCC(C)(C)C)ccc2O3)c1` [compound 191], the IC50 is less than 0.1 µM on BACE1 [1] (Table III, IC50's in uM ranges) and 1 to 5 µM at BACE1 [2] (Table III, IC50's in uM ranges).

Consider `NC1=N[C@@]2(CO1)c1cc(C(=O)N3CCCC3)ccc1Oc1ccc(-c3cccnc3)cc12` [compound 872], for which the IC50 on BACE1 [1] (Table IV, class symbols) lay within 0.1 to 1 µM; on BACE1 [2] (Table IV, class symbols), 0.1 to 1 µM.

Regarding `NC1=N[C@@]2(CO1)c1cc(-c3cc(Cl)ccc3F)ccc1Oc1ncc(N3CCOCC3)cc12` [compound 457], the IC50 on BACE1 [1] and at BACE1 [2] (HEK cells) was less than 0.1 µM each time.
